What was measured:
[1] = molecular target: Ba/F3-EGFR (d746-750/T790M/C797S) (Homo sapiens, UniProt P00533, DEL746-750/T790M/C797S, cells depend on it); assay: Growth inhibition of cell line expressing EGFR (d746-750/T790M/C797S); assay type: cell-based, mouse; details: Test Example 4, Table 13; same procedures as Test Example 2; read-out: BaF3_EGFR (d746-750/T790M/C797S) IC50 value
From the text: (§1) Test for inhibitory activity against the growth of cell lines expressing wild-type and mutated EGFRs (in vitro)
(§2) (1) Mouse cell line Ba/F3-EGFR (d746-750/T790M/C797S) transfected with and stably expressing EGFR (d746-750/T790M/C797S), mouse cell Ba/F3-EGFR (L858R/T790M/C797S) transfected with and stably expressing EGFR (L858R/T790M/C797S), and mouse cell line Ba/F3-EGFR (WT) transfected with and stably expressing wild-type EGFR were each suspended in RPMI-1640 cell culture medium (RPMI-1640, 10% FBS, 100 unit/ml penicillin, 0.1 mg/ml streptomycin). In the case of the mouse cell line Ba/F3-EGFR (WT), RPMI-1640 cell culture medium containing EGF at a final concentration of 50 ng/ml was used to suspend this cell line. It should be noted that the mouse cell line Ba/F3-EGFR (d746-750/T790M/C797S) transfected with and stably expressing EGFR (d746-750/T790M/C797S), the mouse cell line Ba/F3-EGFR (L858R/T790M/C797S) transfected with and stably expressing EGFR (L858R/T790M/C797S) and the mouse cell line Ba/F3-EGFR (WT) transfected with and stably expressing wild-type EGFR were prepared by using nucleotide sequences encoding the proteins of SEQ ID NOs: 1 and 2 in accordance with Test Example 1 in WO2018/079310, These cell suspensions were seeded in wells of 96-well flat -bottomed plates. The compounds of the present invention were dissolved in DMSO, and serial dilutions of these test compounds were prepared with DMSO (1000-fold of the final concentration). Each test compound solution in DMSO or DMSO alone was diluted with RPMI-1640 cell culture medium for each cell line, and this dilution was added to wells of the cell culture plate such that the final concentration of DMSO was 0.1%, followed by culture at 37° C. for 3 days in a 5% carbon dioxide gas-containing incubator. Before and after addition of each test compound solution in DMSO, the number of cells was counted using the CellTiter-Glo® system (Promega) on the basis of the protocol recommended by Promega.
(§3) In each cell line, the rate of cell growth inhibition was calculated according to the equation shown below in wells to which each test compound was added at different concentrations. Moreover, the inhibition rate at each concentration was plotted for each test compound, and the concentration of each test compound required to give 50% cell survival rate, i.e., IC50 (nM) was determined by curve fitting software XLfit (IDBS).
(§4) Cell survival rate (%)=T/C×100
(§5) T: emission intensity in a well cultured for 3 days after addition of a test compound solution
(§6) C: emission intensity in a well cultured for 3 days after addition of DMSO
(§7) In accordance with the same procedures as shown in Test Example 2, the compounds of the present invention were tested for their inhibitory activity against the growth of the cell hoes expressing wild-type and mutated EGFRs.

[2] = molecular target: Ba/F3-EGFR (L858R/T790M/C797S) (Homo sapiens, UniProt P00533, T790M/C797S/L858R, cells depend on it); assay: Growth inhibition of cell line expressing EGFR (L858R/T790M/C797S); assay type: cell-based, mouse; details: Test Example 4, Table 13; same procedures as Test Example 2; read-out: BaF3_EGFR (L858R/T790M/C797S) IC50 value
From the text: as §1, §2, §3, §4, §5, §6, §7

[3] = molecular target: Ba/F3-EGFR (WT) (Homo sapiens, UniProt P00533); assay: Growth inhibition of cell line expressing wild-type EGFR; assay type: cell-based, mouse; details: Test Example 4, Table 13; same procedures as Test Example 2; read-out: BaF3_EGFR (WT) IC50 value
From the text: as §1, §2, §3, §4, §5, §6, §7

[4] = molecular target: T1, human EGFR (d746-750/T790M/C797S) (Homo sapiens, UniProt P00533, C797S/DEL746-750/T790M); assay: Inhibitory activity against EGFR (d746-750/T790M/C797S) kinase; assay type: biochemical
T1 construct: made in house; host or cells: Sf9 insect cells, baculovirus
Outline: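 GST-fused cytoplasmic domain of human EGFR d746-750/T790M/C797S (Sf9-expressed) was incubated with 250 nM biotinylated peptide, 6 μM ATP, 10 mM MgCl2 and 10 mM MnCl2 (2.5% DMSO) for 120 min at 25 °C. After an EDTA stop, phosphotyrosine was detected by Eu-PT66/SureLight APC-SA TR-FRET (665/620 nm, excitation 337 nm). Background wells received EDTA before enzyme.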

[5] = molecular target: T2, human EGFR (L858R/T790M/C797S) (Homo sapiens, UniProt P00533, C797S/L858R/T790M); assay: Inhibitory activity against EGFR (L858R/T790M/C797S) kinase; assay type: biochemical
T2 construct: made in house; host or cells: Sf9 insect cells, baculovirus
Outline: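 GST-tagged cytoplasmic domain of human EGFR L858R/T790M/C797S, expressed in Sf9 insect cells via baculovirus and glutathione-purified. Kinase reaction run at 0.5 μM ATP final; IC50 (nM) determined per compound.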

[6] = molecular target: T3, human EGFR (d746-750/C797S) (Homo sapiens, UniProt P00533, C797S/DEL746-750); assay: Inhibitory activity against EGFR (d746-750/C797S) kinase; assay type: biochemical
T3 construct: purchased SignalChem
Outline: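 Recombinant human EGFR d746-750/C797S in 13.5 mM Tris pH 7.5 with 2 mM DTT and 0.009% Tween-20. Reaction ran 60 min with 14 μM ATP, 20 mM MgCl2 and 12.5 mM MnCl2, stopped by 40 mM EDTA. IC50 in nM.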

[7] = molecular target: T4, human EGFR (L858R/C797S) (Homo sapiens, UniProt P00533, C797S/L858R); assay: Inhibitory activity against EGFR (L858R/C797S) kinase; assay type: biochemical
T4 construct: purchased SignalChem
Outline: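 Purified recombinant human EGFR (C797S/L858R) kinase, final ATP 4 μM, 90-minute kinase reaction, otherwise per the EGFR (d746-750/C797S) protocol. IC50 (nM) determined from inhibition data.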

[8] = molecular target: T5, human EGFR (WT) (Homo sapiens, UniProt P00533); assay: Inhibitory activity against EGFR (WT) kinase; assay type: biochemical
T5 construct: purchased Carna Biosciences Inc., Japan
Outline: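 Purified recombinant human wild-type EGFR kinase, with ATP at 1.5 μM final. Compound inhibition of kinase activity read out and fitted to give IC50 (nM).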

[9] = Test Example 3, Table 8; same procedures as 1) in Test Example 1
[10] = Test Example 3, Table 9; same procedures as 2) in Test Example 1
[11] = Test Example 3, Table 10; same procedures as 3) in Test Example 1
[12] = Test Example 3, Table 11; same procedures as 4) in Test Example 1
[13] = Test Example 3, Table 12; same procedures as 5) in Test Example 1

Row | Molecule | GI50 [1] | GI50 [2] | GI50 [3] | IC50 [4, 9] | IC50 [5, 10] | IC50 [6, 11] | IC50 [7, 12] | IC50 [8, 13] | IC50 ([4]; Test Example 1, Table 2, ATP 6 μM, 25° C., 120 minutes) | IC50 ([5]; Test Example 1, Table 3, ATP 0.5 μM) | IC50 ([6]; Test Example 1, Table 4, ATP 14 μM, 60 minutes) | IC50 ([7]; Test Example 1, Table 5, ATP 4 μM, 90 minutes) | IC50 ([8]; Test Example 1, Table 6, ATP 1.5 μM)
1 | C#Cc1c(-c2cnc3ccccc3c2)c2c(N)ncnc2n1C12CCC(NC(=O)c3cnco3)(CC1)C2 [Example 47] | 33 nM | 382 nM | 2060 nM | – | – | – | – | – | – | – | – | – | –
2 | C#Cc1c(-c2cnc3ccccc3c2)c2c(N)ncnc2n1C12CCC(NC(=O)OCc3cnccn3)(CC1)C2 [Example 59, Pyrazin-2-ylmethyl (4-(4-amino-6-ethynyl-5-(quinolin-3-yl)-7H-pyrrolo[2,3-d]-pyrimidin-7-yl)bicyclo[2.2.1]heptane-1-yl)carbamate] | – | – | – | 0.37 nM | 0.47 nM | 0.83 nM | 1.7 nM | 2.2 nM | – | – | – | – | –
3 | C#Cc1c(-c2cnc3ccccc3c2)c2c(N)ncnc2n1C12CCC(NC(=O)c3cnc(CO)cn3)(CC1)C2 [Example 66, N-(4-(4-Amino-6-ethynyl-5-(quinolin-3-yl)-7H-pyrrolo[2,3-d]pyrimidin-7-yl)bicyclo-[2.2.1]heptan-1-yl)-5-(hydroxymethyl)pyrazine-2-carboxamide] | – | – | – | < 0.3 nM | < 0.3 nM | < 0.3 nM | < 0.3 nM | < 0.3 nM | – | – | – | – | –
4 | C#Cc1c(-c2cnc3ccccc3c2)c2c(N)ncnc2n1C12CCC(NC(=O)c3cnc(CNC)cn3)(CC1)C2 [Example 67, N-(4-(4-Amino-6-ethynyl-5-(quinolin-3-yl)-7H-pyrrolo[2,3-d]pyrimidin-7-yl)bicyclo-[2.2.1]heptan-1-yl)-5-((methylamino)methyl)pyrazine-2-carboxamide] | – | – | – | < 0.3 nM | < 0.3 nM | 0.3 nM | 0.37 nM | 0.35 nM | – | – | – | – | –
5 | C#Cc1c(-c2cnc3ccccc3c2)c2c(N)ncnc2n1C12CCC(NC(=O)c3cnc(CN(C)C)cn3)(CC1)C2 [Example 68, N-(4-(4-Amino-6-ethynyl-5-(quinolin-3-yl)-7H-pyrrolo[2,3-d]pyrimidin-7-yl)bicyclo-[2.2.1]heptan-1-yl)-5-((dimethylamino)methyl)pyrazine-2-carboxamide] | – | – | – | < 0.3 nM | < 0.3 nM | < 0.3 nM | 0.36 nM | 0.43 nM | – | – | – | – | –
6 | C#Cc1c(-c2cnc3ccccc3c2)c2c(N)ncnc2n1C12CCC(NC(=O)c3cnc(CN4CCOCC4)cn3)(CC1)C2 [Example 69, N-(4-(4-Amino-6-ethynyl-5-(quinolin-3-yl)-7H-pyrrolo[2,3-d]pyrimidin-7-yl)bicyclo-[2.2.1]heptan-1-yl)-5-(morpholinomethyl)pyrazine-2-carboxamide] | – | – | – | < 0.3 nM | < 0.3 nM | < 0.3 nM | 0.59 nM | 0.74 nM | – | – | – | – | –
7 | C#Cc1c(-c2cnc3ccccc3c2)c2c(N)ncnc2n1C12CCC(NC(=O)c3ccc(P(C)(C)=O)cn3)(CC1)C2 [Example 70, N-(4-(4-Amino-6-ethynyl-5-(quinolin-3-yl)-7H-pyrrolo[2,3-d]pyrimidin-7-yl)bicyclo-[2.2.1]heptan-1-yl)-5-(dimethylphosphoryl)picolinamide] | – | – | – | < 0.3 nM | < 0.3 nM | 0.7 nM | 1.6 nM | 0.94 nM | – | – | – | – | –
8 | N-4-(4-Amino-6-ethynyl-5-(quinolin-3-yl)-7H-pyrrolo[2,3-d]pyrimidin-7-yl)bicyclo -[2.2.1]heptane-1-yl)oxazole-5-carboxamide [Example 47] | – | – | – | – | – | – | – | – | < 0.3 nM | 0.59 nM | 0.33 nM | 0.36 nM | 0.41 nM

Further lines, results first:

Row | GI50 [1] | GI50 [2] | GI50 [3] | IC50 [4, 9] | IC50 [5, 10] | IC50 [6, 11] | IC50 [7, 12] | IC50 [8, 13] | IC50 ([4]; Test Example 1, Table 2, ATP 6 μM, 25° C., 120 minutes) | IC50 ([5]; Test Example 1, Table 3, ATP 0.5 μM) | IC50 ([6]; Test Example 1, Table 4, ATP 14 μM, 60 minutes) | IC50 ([7]; Test Example 1, Table 5, ATP 4 μM, 90 minutes) | IC50 ([8]; Test Example 1, Table 6, ATP 1.5 μM) | Molecule
9 | – | – | – | < 0.3 nM | < 0.3 nM | 0.3 nM | 0.48 nM | 0.72 nM | – | – | – | – | – | C#Cc1c(-c2cnc3ccccc3c2)c2c(N)ncnc2n1C12CCC(NC(=O)c3cccc[n+]3[O-])(CC1)C2 [Example 60, 2-((4-(4-Amino-6-ethynyl-5-(quinolin-3-yl)-7H-pyrrolo[2,3-d]pyrimidin-7-yl)bicyclo-[2.2.1]heptane-1-yl)carbamoyl)pyridine 1-oxide]
10 | – | – | – | < 0.3 nM | 1.6 nM | 0.54 nM | 1.1 nM | 2.7 nM | – | – | – | – | – | C#Cc1c(-c2cnc3ccccc3c2)c2c(N)ncnc2n1C12CCC(NC(=O)N3CCOCC3)(CC1)C2 [Example 61, N-(4-(4-Amino-6-ethynyl-5-(quinolin-3-yl)-7H-pyrrolo[2,3-d]pyrimidin-7-yl)bicyclo-[2.2.1]heptan-1-yl)morpholine-4-carboxamide]
11 | – | – | – | < 0.3 nM | < 0.3 nM | 0.86 nM | 0.32 nM | 0.41 nM | – | – | – | – | – | C#Cc1c(-c2cnc3ccccc3c2)c2c(N)ncnc2n1C12CCC(NC(=O)c3cnc4ccccn34)(CC1)C2 [Example 64, N-(4-(4-Amino-6-ethynyl-5-(quinolin-3-yl)-7H-pyrrolo[2,3-d]pyrimidin-7-yl)bicyclo-[2.2.1]heptan-1-yl)imidazo[1,2-a]pyridine-3-carboxamide]
12 | – | – | – | < 0.3 nM | < 0.3 nM | 0.4 nM | < 0.3 nM | < 0.3 nM | – | – | – | – | – | C#Cc1c(-c2cnc3ccccc3c2)c2c(N)ncnc2n1C12CCC(NC(=O)c3cnc4cnccn34)(CC1)C2 [Example 65]

From patent US11786534B2 (TAIHO PHARMACEUTICAL CO., LTD., priority 2019, dated 2023)
